Molecules are shown by their SMILES.

Assay [1] in a line: Diet-induced obese mice: tissue protein, phosphorylation and gene expression (liver, WAT, BAT). Type of assay: in vivo, C57BL/6 mice. On the procedure: Wild type male C57BL/6 mice were fed a high fat diet consisting of 45% of calories from fat (D12451 Research Diets Inc., New Brunswick, N.J.) starting at 8 weeks of age for 12-24 weeks, while normal diet C57BL/6 controls were maintained on normal chow diet consisting of 4.5% fat (5002 Lab Diet, Philadelphia, Pa.). Diets containing ω-3 fatty acids were fed as previously described 24. Rosiglitazone treatment was administered for three weeks by addition of the compound to the diet in mice that had been on HFD for 16 weeks. Each mouse consumed on average 3.5 mg/kg rosiglitazone per day. Amlexanox was administered by daily oral gavage. […] Animals were housed in a specific pathogen-free facility with a 12-hour light/12-hour dark cycle and given free access to food and water. All animal use was in compliance with the Institute of Laboratory Animal Research Guide for the Care and Use of Laboratory Animals and approved by the University Committee on Use and Care of Animals at the University of Michigan and UCSD.
Tissues were homogenized in lysis buffer (50 mM Tris, pH 7.5, 5 mM EDTA, 250 mM sucrose, 1% NP40, 2 mM DTT, 1 mM sodium vanadate, 100 mM NaF, 10 mM Na4P2O7, and freshly added protease inhibitor tablet), then incubated for one hour at 4° C. Crude lysates were then centrifuged at 14,000×g for 15 minutes twice and the protein concentration was determined using BioRad Protein Assay Reagent. Samples were diluted in sodium dodecyl sulfate (SDS) sample buffer. Bound proteins were resolved by SDS-polyacrylamide gel electrophoresis and transferred to nitrocellulose membranes (Bio-Rad, Hercules, Calif.). Individual proteins were detected with the specific antibodies and visualised on film using horseradish peroxidase-conjugated secondary antibodies (Bio-Rad, Hercules, Calif.) and Western Lightning Enhanced Chemiluminescence (Perkin Elmer Life Sciences, Waltham, Mass.).
Tissues were fixed in formalin for 3 days. Histology was performed by the University of Michigan Cancer Center Research Histology Laboratory.
Mouse tissues were isolated, rinsed in Phosphate Buffered Saline (PBS), frozen in liquid nitrogen and stored at −80° C. until extraction. Total RNA was extracted from Liver, WAT and BAT tissues as well as differentiated 3T3-L1 cells using the RNeasy Lipid Tissue Kit (Qiagen, Valencia, Calif.) according to the manufacturer's instructions with the inclusion of a DNase digestion step. Total RNA was extracted from BMDM and SVF cells using the RNeasy Kit (Qiagen, Valencia, Calif.) with a DNase step. The Superscript First-Strand Synthesis System for RTPCR (Invitrogen, Grand Island, N.Y.) was used with random primers for reverse transcription. Realtime PCR amplification of the cDNA was performed on samples in triplicate with Power SYBR Green PCR Master Mix (Applied Biosystems, Carlsbad, Calif.) using the Applied Biosystems 7900HT Fast Realtime PCR System. […] Data was analyzed using the 2-ΔΔCT method, and statistical significance was determined using the unpaired heterocedastic Student's t-test with one averaged sample value per mouse.

For assay [2], the system named is broad panel of kinases representing most families. In words: Broad panel of kinases. Type of assay: biochemical.

For the molecule `CC(C)c1ccc2oc3nc(N)c(C(=O)O)cc3c(=O)c2c1` [amlexanox, 2-amino-7-isopropyl-5-oxo-5H-chromeno[2,3-b]pyridine-3-carboxylic acid], in assay [1] (HFD, 25 mg/kg daily), the “expression of brown fat-specific marker Cidea in BAT” value is on record as “increased”. For the same molecule, the “UCP1 protein levels in brown fat” value in assay [1] (HFD, treatment group) is listed as “increased”. Further, the “mitochondrial genes in brown fat” value in assay [1] (compared to control) is recorded as “no increases”. The “signaling through the mTORC1 pathway in BAT” value in assay [1] (compared to controls) is listed as “Reduced signaling”. Moreover, in assay [1] (diet induced obese mice), the “TBK1 phosphorylation in adipose tissue” value is “prevented”, the “high fat diet induction of IKKε protein in adipose tissue” value was “blocked” and the “high fat diet-induced increase of S6K phosphorylation in adipose tissue” value was “largely attenuated”. In addition, the “UCP-1 protein levels in adipose tissue” value in assay [1] (diet induced obese mice vs HFD vehicle) is on record as “increased”. Moreover, in assay [1] (high fat diet), the brown fat appearance result was “reverted to its normal appearance” and the “hormone sensitive lipase phosphorylation in adipose tissue” value is on record as “prevented the reduction”. Also, the “BAT lipids when amlexanox treatment was stopped” value in assay [1] (high fat diet, withdrawal) is “lipids again accumulated”. For the same molecule, in assay [1] (mice with diet induced obesity), the “genetic measures of hepatosteatosis” value is listed as “similarly reduced”. For the same molecule, in assay [1] (mouse, in vivo), the “IKKε protein levels in BAT” value is reported as “reduced” and the “TBK1 protein levels in BAT” value is given as “reduced”. Further, the “block of other kinases of a broad panel” value in assay [2] is reported as “did not block”.

These data come from patent US10245255B2, “Compositions and methods for the treatment of obesity and related disorders” (THE REGENTS OF THE UNIVERSITY OF MICHIGAN, priority 2011, dated 2019).
